Experimental data published in publication PMC12373508, “D-cysteine impairs tumour growth by inhibiting cysteine desulfurase NFS1” (Nature Metabolism, 2025).

Columns and labels:
[1] = target: T1, NFS1 (Homo sapiens, UniProt Q9Y697); assay: reconstituted [2Fe-2S] cluster synthesis by circular dichroism; UV/Vis of Cys-ketimine formation; assay type: biochemical
Target sequence in this assay (Q9Y697 56-457, other chains not shown): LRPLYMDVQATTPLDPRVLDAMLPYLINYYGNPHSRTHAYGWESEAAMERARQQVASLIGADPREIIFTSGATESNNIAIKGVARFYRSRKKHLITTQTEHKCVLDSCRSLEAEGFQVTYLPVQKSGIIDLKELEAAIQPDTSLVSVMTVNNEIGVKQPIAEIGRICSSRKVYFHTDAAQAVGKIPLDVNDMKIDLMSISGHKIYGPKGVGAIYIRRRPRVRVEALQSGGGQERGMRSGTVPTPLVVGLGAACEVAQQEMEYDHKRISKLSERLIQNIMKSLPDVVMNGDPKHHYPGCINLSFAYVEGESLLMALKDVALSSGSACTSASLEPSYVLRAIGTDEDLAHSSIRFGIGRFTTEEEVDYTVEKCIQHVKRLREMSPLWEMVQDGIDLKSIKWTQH
Target sequence in this assay (Q9HD34 whole entry partner, other chains not shown): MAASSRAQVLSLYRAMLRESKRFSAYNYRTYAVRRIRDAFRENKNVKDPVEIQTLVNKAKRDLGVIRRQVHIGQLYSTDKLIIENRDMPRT
Target sequence in this assay (Q16595 81-210 partner, other chains not shown): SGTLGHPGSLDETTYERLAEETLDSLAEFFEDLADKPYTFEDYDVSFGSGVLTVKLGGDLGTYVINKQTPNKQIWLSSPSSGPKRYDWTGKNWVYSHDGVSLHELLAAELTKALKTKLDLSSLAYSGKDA
Target sequence in this assay (Q9H1K1 35-167 partner, other chains not shown): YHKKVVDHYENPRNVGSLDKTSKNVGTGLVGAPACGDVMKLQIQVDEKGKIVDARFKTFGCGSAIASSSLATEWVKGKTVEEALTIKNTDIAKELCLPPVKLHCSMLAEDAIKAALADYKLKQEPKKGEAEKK

[2] = target: NFS1 (Homo sapiens, UniProt Q9Y697, C381S); assay: microscale thermophoresis; assay type: binding
[3] = target: T1, NFS1; assay: X-ray crystal structure after incubation with […] ligand; assay type: binding
Target sequence in this assay (Q9Y697 56-457): as the sequence (Q9Y697 56-457, other chains not shown) above
Target sequence in this assay (Q9HD34 whole entry partner): as the sequence (Q9HD34 whole entry partner, other chains not shown) above
Target sequence in this assay (P0A6A8 2-78 partner): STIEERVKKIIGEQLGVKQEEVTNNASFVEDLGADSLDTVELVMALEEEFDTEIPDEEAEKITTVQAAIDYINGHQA
Target sequence in this assay (Q9H1K1 35-167 partner): as the sequence (Q9H1K1 35-167 partner, other chains not shown) above

NFS1 (Homo sapiens, UniProt Q9Y697, C381S), sequence (Q9HD34 whole entry, other chains not shown): as the sequence (Q9HD34 whole entry partner, other chains not shown) above
NFS1 (Homo sapiens, UniProt Q9Y697, C381S), sequence (Q9Y697 56-457 C381S, other chains not shown): as the sequence (Q9Y697 56-457, other chains not shown) above, with C326S counted along it

Row | Structure (SMILES) | reconstituted [2Fe-2S] cluster synthesis by circular dichroism; UV/Vis of Cys-ke [1] | Kd [2] | X-ray crystal structure after incubation with 1 mM ligand [3]
1 | N[C@H](CS)C(=O)O [D-Cys, D-cysteine] | when D-Cys is present in excess, the NFS1 enzymatic activity is inhibited | 25.6 µM | –
2 | N[C@@H](CS)C(=O)O [L-Cys, L-cysteine] | – | 2.15 µM | –
3 | C#CC[C@H](N)C(=O)O [PG, L-propargylglycine] | – | – | in the NFS1 active site, we observed an external L-propargylglycine-ketimine
